Measured values from patent US10709724B2, “Methods of treating mitochondrial dysfunction” (Ecole Polytechnique Federale de Lausanne (EPFL), priority 2011, dated 2020).
“And” between values parts separate entries of the source, which are not always exact repeats. Identical values can stand only once. “Also recorded” adds a separate entry of the source.

Assays:
C. elegans = test: Worm lifespan analysis; assay type: in vivo; conditions: for variation compared to control (%): vs N2 + water
Experimental: Worm Lifespan Analysis Lifespan tests were performed as described in Mouchiroud et al (L. Mouchiroud et al., Pyruvate imbalance mediates metabolic reprogramming and mimics lifespan extension by dietary restriction in Caenorhabditis elegans. Aging Cell 10, 39 (2011)). Briefly, 60-100 animals were used per conditions and scored every other day. All lifespan experiments were performed at 20° C. […] Animals were exposed to compounds during the full life from eggs until death. To ensure a permanent exposure to the compound, plates were changed twice a week. All the compounds used in this study were dissolved in a water stock solution.

SIRT3 = test: NR in SIRT3−/− mouse embryonic fibroblasts; assay type: cell-based; conditions: 0.5 mM, 24 hrs
Experimental: Cell Culture, Transfection, Adenoviral Infection and Mitochondrial Characterization. HEK293T, MEF and C2C12 cells were cultured in DMEM (4.5 g/l glucose, 10% FCS). PARP-1^+/+ and PARP-1^−/− MEFs were prepared as described in (Menissier-de Murcia et al., 1997). SIRT1 and MEFs were kindly provided by Fred Alt (Chea et al., 2005). SIRT3 MER were established according to standard techniques from conditional SERT3^−/− mice. […] Mitochondrial charge determination was performed as described (Bai et al., 2001) and DNA strand breaks were quantified by TUNEL assays according to the manufacturer's instructions (Millipore).
Immunoprecipitation, SDS-PAGE, Western Blotting. […] Reactions were developed by enhanced chemiluminescence (Amersham, Little Chalfont, UK), PGC-1α, FOXO1 and Ndufa9 acetylation levels were analyzed by immunoprecipitation from cellular or nuclear lysates of tissues with anti-PGC-1α (Millipore), anti-FOXO1 (Cell Signaling, Danvers, Mass., USA) and anti-Ndufa9 (Abcam) antibody followed by Western blot using an acetyl-lysine antibody (Cell Signaling) that was normalized to total PGC-1a/FOXO1/Ndufa9 levels (Lagouge et al., 2006; Rodgers et al., 2005). […] All blots were quantified by densitometry using ImageJ software. […]

With `NC(=O)c1ccc[n+]([C@@H]2O[C@H](CO)[C@@H](O)[C@H]2O)c1` [NR, nicotinamide riboside] the “mean lifespan ± SE” value (C. elegans; N2, 200 nM) was 21.1 ± 0.88 days, the “variation compared to control (%)” value (C. elegans; N2, 200 nM) was “+17.9%” and the “mean lifespan ± SE” value (C. elegans; N2, 500 nM) was 23.5 ± 0.56 days and 24.9 ± 0.68 days and 20.6 ± 1.02 days. The “mean lifespan ± SE” value (C. elegans; N2, 1000 nM) was 20.0 ± 0.89 days, the “variation compared to control (%)” value (C. elegans; N2, 1000 nM) was “+11.7%” and the “lifespan in daf-16 mutant worms” value (C. elegans; daf-16(mu86) mutant worms) was “completely abolished; also recorded: daf-16-dependent”. For the same compound, the “mean lifespan ± SE” value (C. elegans; daf-16(mu86), 500 nM) was 19.1 ± 0.51 days, the “variation compared to control (%)” value (C. elegans; daf-16(mu86), 500 nM) was −7.8% and the “lifespan in sir-2.1(ok434) mutant / sir-2.1 dependence” value (C. elegans; sir-2.1(ok434) mutant worms) was “sir-2.1-dependent fashion; also recorded: sir-2-dependent manner”. For the same compound, the “mean lifespan ± SE” value (C. elegans; sir-2.1(ok434), 500 nM) was 23.2 ± 0.61 days, the “variation compared to control (%)” value (C. elegans; sir-2.1(ok434), 500 nM) was “+12.0%” and the lifespan (C. elegans; wild type N2 worms) was “extended lifespan; also recorded: increases”. For the same compound, the “NAD+ levels in SIRT3−/− MEFs” value (SIRT3) was “increased to similar levels as in SIRT3^+/+ MEFs” and the “acetylation status of SOD2 in SIRT3−/− MEFs” value (SIRT3) was “unable to decrease the acetylation status of SOD2”.
